The numbers were not newly measured in patent US6309839A, “Screening methods for compounds that inhibit or stimulate helicase enzyme activity” (Board of Trustees of the University of Arkansas, priority 2000, dated 2001), which cites them from elsewhere.

In this data set the target is streptavidin (Streptomyces avidinii, UniProt P22629). Particulars: no helicase present.
Chain of streptavidin (P22629 25-183): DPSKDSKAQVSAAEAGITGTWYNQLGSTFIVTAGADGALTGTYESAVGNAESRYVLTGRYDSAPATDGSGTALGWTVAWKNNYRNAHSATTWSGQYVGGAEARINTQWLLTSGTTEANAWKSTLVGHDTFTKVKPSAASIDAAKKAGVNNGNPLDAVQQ

For the compound `O=C(O)CCCC[C@@H]1SC[C@@H]2NC(=O)N[C@@H]21` [biotin], the “spontaneous dissociation rate of streptavidin from biotin” value is 0.00033 min⁻¹.
